Measurements taken from patent US11793775B2, “Combined therapy for treating Alzheimer's disease” (MERRY LIFE BIOMEDICAL COMPANY, LTD., priority 2021, dated 2023).

Legend:
[1] = tested on: Aβ plaques; assay: Aβ plaque deposition by Amylo-glo staining of brain sections; assay type: in vivo; conditions: cortex and hippocampus, APP/PS1 mice at 7 months, 4 months treatment, vs APP/PS1 controls
Experimental: (§1) For study of combination treatment, APP/PS1 mice were randomly assigned into four groups and were subjected to the treatments at 3 months of age (the early/prodromal stage of AD) for 4 months. Wt littermates (n=10) were also included for behavioral tests as a WT control group at 7 months. […] Body weight was recorded weekly. After 4 months of treatments, mice at age of 7 months were subjected to the following examinations.
(§2) Brain sections were fixed in 4% paraformaldehyde followed by cryoprotection with 30% sucrose in 1×PBS. Floating sections at 30 μm thickness were stored in 1×PBS with 0.05% sodium azide at 4° C. until use. Amylo-Glo RTD™ (TR-400-AG, Biosensis, Thebarton, Australia) was used for detection of amyloid-β (Aβ) plaques in the brain sections per manufacturer's instruction. The sections were mounted on the slide covered with mounting medium (Vectashield H-1000, Vector Laborotories, Burlingame, Calif., USA). Images were acquired using Leica confocal microscopy imaging system. Numbers of Aβ deposits and fluorescent area positive for AP deposits were normalized with total area of the section using MetaMorph imaging software. Quantification for sizes of AP deposits larger or smaller than 500 μm^2 were presented. […]

[2] = tested on: microglia; assay: Morphological analyses of microglia (neurite outgrowth analyses); assay type: in vivo, APP/PS1 mice; conditions: total length of cell-associated skeletonized outgrowth, FIG. 5G
[3] = tested on: APP/PS1 mice; assay: Nesting test; assay type: in vivo
Experimental: as §1
Before the test for nesting, mice were individually housed for 5 hr. A nestlet pressed-cotton square (Ancare) was then placed into each cage 1 hour before the start of the dark cycle. Pictures of a nestlet were taken at indicated time points, and the entire test underwent for 52 hr. Nest construction was scored by two persons unaware of treatments using a 5-point scaling system as described previously (Yeh et al. 2015). Briefly, a score of 1 indicates a >90% intact nestlet, whereas a score of 5 indicates a <10% intact nestlet and the construction of a nest with an obvious crater.

[4] = tested on: APP/PS1 mice; assay: Morris water maze; assay type: in vivo; conditions: training course, compared with wt
Experimental: as §1
To evaluate spatial learning and memory deficits in APP/PS1 mice, a circular pool of 120 cm in diameter and 40 cm in height was used. The pool was filled with milk at 22-24 ° C. to approximately 20 cm in deep. A hidden platform was submerged 1 cm below the surface of milk. All experimental mice were transferred to the behavior testing room 30 min prior to the water maze to habituate to the test environment. During the training course, mice received 3 trials per day with a 60-minute inter-trial interval for 6 days. Probe test without the hidden platform was performed at day 7 and mice were allowed to investigate for 60 seconds. An overhead camera and a computerized video imaging analysis system were used to analyze the swimming paths and the escape latency.

[5] = tested on: microglia; assay: Microglial Aβ phagocytosis by co-localization of Iba1 and Aβ plaques; assay type: in vivo; conditions: brain of APP/PS1 mice, FIG. 5A
Experimental: as §1
as §2, with “Numbers of Aβ deposits and fluorescent area positive for AP deposits were normalized with total area of the section using MetaMorph imaging software.” left out
Since microglia are primary immune cells in the brain responsible for Aβ clearance, treatment effects on microglial Aβ phagocytosis was evaluated by co-localization of microglia and Aβ plaques using confocal microscopy.

[6] = Stability of TML-6 in TML-6 diet by LC/MS/MS; assay type: physicochemical; conditions: rodent chow supplemented with TML-6, LC/MS/MS
Experimental: TML-6, a small molecule curcumin analog, was used in this study. A regular rodent chow (Laboratory Rodent Diet 5001) supplemented with TML-6 at 100 mg/kg rodent chow was provided by Merry Life Biomedical company, Ltd. Content, purity, and stability of TML-6 in TML-6 diet at different storage conditions were analyzed using LC/MS/MS via service provided by the Development Center for Biotechnology, Taiwan. TML-6 diet was stored at 4° C. and was added to mouse cages twice a week for ad libitum feeding regimens. Daily uptake of TML-6 in APP/PS1 mice was estimated based on average consumption of rodent chow supplemented with TML-6 at 100 mg/kg chow for 24 hr or 8 days. Briefly, three APP/PS1 mice were housed individually in metabolic cages with an apparatus for measuring food-intake. Estimated TML-6 uptake per kg body weight per day was calculated by multiplying the daily consumption of TML-6 supplemented chow by the amount of TML-6 in the chow divided by body weight.

**Q.** For CCN(CC)C(=O)CC(C)(C(=O)/C=C/c1ccc(OC)c(OC)c1)C(=O)/C=C/c1ccc(OC)c(OC)c1 [TML-6], which “Aβ depositions (Amylo-glo staining)” value [1] is on record?
**A.** lower levels of Aβ depositions

**Q.** What about the “total outgrowth of microglia” value [2] of the same compound?
**A.** increased

**Q.** And the nesting scores ([3]; two-way ANOVA, vs APP/PS1 controls, FIG. 4A)?
**A.** significant improvements

**Q.** What about the “slopes of nesting scores, p (linear regression)” value ([3]; vs APP/PS1 controls, FIG. 4B) of the same compound?
**A.** 0.07173

**Q.** What about the “slopes of nesting scores, p (linear regression)” value ([3]; vs wt) of the same compound?
**A.** 0.1648

**Q.** And the “latency of finding the hidden platform” value [4]?
**A.** comparable to that of wt

**Q.** And the “microglial Aβ phagocytosis (co-localization of Iba1 and Aβ plaques)” value [5]?
**A.** not affected

**Q.** And the “amount of TML-6 in rodent chow at various storage conditions” value [6]?
**A.** stable
